Laboratory results published in ChEMBL document CHEMBL1649218, “New treatment option for second-stage African sleeping sickness: in vitro and in vivo efficacy of aza analogs of DB289” (Antimicrob Agents Chemother, 2009).
Converted amounts (≈) assume the structure as drawn. The source made the active and inactive calls. No cut-off for these calls is given here.

How the values were obtained:
[1] = tested on: Trypanosoma brucei brucei; assay: Antitrypanosomal activity against Trypanosoma brucei brucei GVR35 infected in NMRI mouse CNS model assessed as cure from infection at 10 mg/kg, po for 10 days; assay type: functional, organism-based; parameters: dose 10 mg/kg
[2] = tested on: Trypanosoma brucei brucei; assay: Antitrypanosomal activity against Trypanosoma brucei brucei GVR35 infected in NMRI mouse CNS model assessed as survival of mouse at 25 mg/kg, po for 5 days; assay type: functional
[3] = tested on: Trypanosoma brucei brucei; assay: Antitrypanosomal activity against Trypanosoma brucei brucei GVR35 infected in NMRI mouse CNS model assessed as survival of mouse at 100 mg/kg, po for 5 days; assay type: functional
[4] = tested on: Trypanosoma brucei rhodesiense; assay: Antitrypanosomal activity against wild-type Trypanosoma brucei rhodesiense STIB900 infected in NMRI mouse assessed as survival of mouse at 5 mg/kg, po for 4 days; assay type: functional
[5] = tested on: Trypanosoma brucei rhodesiense; assay: Antitrypanosomal activity against wild-type Trypanosoma brucei rhodesiense STIB900 infected in NMRI mouse assessed as survival of mouse at 25 mg/kg, po for 4 days; assay type: functional
[6] = tested on: Trypanosoma brucei brucei; assay: Antitrypanosomal activity against Trypanosoma brucei brucei GVR35 infected in NMRI mouse CNS model assessed as survival of mouse at 10 mg/kg, po for 10 days; assay type: functional
[7] = tested on: Trypanosoma brucei rhodesiense; assay: Antitrypanosomal activity against wild-type Trypanosoma brucei rhodesiense STIB900 infected in NMRI mouse assessed as survival of mouse at 2.5 mg/kg, po for 4 days; assay type: functional
[8] = tested on: Trypanosoma brucei rhodesiense; assay: Antitrypanosomal activity against wild-type Trypanosoma brucei rhodesiense STIB900 infected in NMRI mouse assessed as cure from infection at 25 mg/kg, po for 4 days; assay type: functional, organism-based; parameters: dose 25 mg/kg
[9] = tested on: Trypanosoma brucei brucei; assay: Antitrypanosomal activity against Trypanosoma brucei brucei GVR35 infected in NMRI mouse CNS model assessed as cure from infection at 100 mg/kg, po for 5 days; assay type: functional, organism-based; parameters: dose 100 mg/kg
[10] = tested on: Trypanosoma brucei brucei; assay: Antitrypanosomal activity against Trypanosoma brucei brucei GVR35 infected in NMRI mouse CNS model assessed as survival of mouse at 75 mg/kg, po for 5 days; assay type: functional
[11] = tested on: Trypanosoma brucei brucei; assay: Antitrypanosomal activity against Trypanosoma brucei brucei GVR35 infected in NMRI mouse CNS model assessed as survival of mouse at 25 mg/kg, po for 10 days; assay type: functional
[12] = tested on: Trypanosoma brucei rhodesiense; assay: Antitrypanosomal activity against wild-type Trypanosoma brucei rhodesiense STIB900 infected in NMRI mouse assessed as cure from infection at 2.5 mg/kg, po for 4 days; assay type: functional, organism-based; parameters: dose 2.5 mg/kg
[13] = tested on: Trypanosoma brucei brucei; assay: Antitrypanosomal activity against Trypanosoma brucei brucei GVR35 infected in NMRI mouse CNS model assessed as survival of mouse at 50mg/kg, po for 10 days; assay type: functional
[14] = tested on: Trypanosoma brucei brucei; assay: Antitrypanosomal activity against Trypanosoma brucei brucei GVR35 infected in NMRI mouse CNS model assessed as survival of mouse at 50 mg/kg, po for 5 days; assay type: functional
[15] = Ratio of IC50 for Trypanosoma brucei gambiense K03048 to IC50 for wild-type Trypanosoma brucei rhodesiense STIB900; assay type: functional
[16] = tested on: Trypanosoma brucei rhodesiense; assay: Ratio of IC50 for melasoprol-resistant Trypanosoma brucei rhodesiense STIB900 to IC50 for wild-type Trypanosoma brucei rhodesiense […]; assay type: functional
[17] = tested on: Trypanosoma brucei rhodesiense; assay: Antitrypanosomal activity against wild-type Trypanosoma brucei rhodesiense STIB900 infected in NMRI mouse assessed as survival of mouse at 20 mg/kg, ip for 4 days; assay type: functional; settings: route intraperitoneal
[18] = tested on: Trypanosoma brucei brucei; assay: Ratio of IC50 for Trypanosoma brucei brucei AT1KO to IC50 for Trypanosoma brucei brucei BS221; assay type: functional
[19] = tested on: Trypanosoma brucei rhodesiense; assay: Antitrypanosomal activity against melasoprol-resistant Trypanosoma brucei rhodesiense STIB900 by Alamar blue assay; assay type: functional, organism-based
[20] = tested on: Trypanosoma brucei brucei; assay: Antitrypanosomal activity against Trypanosoma brucei brucei GVR35 infected in NMRI mouse CNS model assessed as survival of mouse at 20 mg/kg, ip for 5 days; assay type: functional; settings: route intraperitoneal
[21] = tested on: Trypanosoma brucei brucei; assay: Antitrypanosomal activity against Trypanosoma brucei brucei GVR35 infected in NMRI mouse CNS model assessed as cure from infection at 20 mg/kg, ip for 10 days; assay type: functional, organism-based; parameters: dose 20 mg/kg
[22] = tested on: Trypanosoma brucei rhodesiense; assay: Ratio of IC50 for pentamidine-resistant Trypanosoma brucei rhodesiense STIB900 to IC50 for wild-type Trypanosoma brucei rhodesiense STIB900; assay type: functional
[23] = tested on: Trypanosoma brucei brucei; assay: Antitrypanosomal activity against Trypanosoma brucei brucei AT1KO by Alamar blue assay; assay type: functional, organism-based
[24] = tested on: Trypanosoma brucei gambiense; assay: Antitrypanosomal activity against Trypanosoma brucei gambiense K03048 by Alamar blue assay; assay type: functional, organism-based
[25] = tested on: Trypanosoma brucei gambiense; assay: Ratio of IC50 for Trypanosoma brucei gambiense K03048 to IC50 for Trypanosoma brucei gambiense STIB930; assay type: functional
[26] = tested on: Trypanosoma brucei brucei; assay: Antitrypanosomal activity against Trypanosoma brucei brucei GVR35 infected in NMRI mouse CNS model assessed as survival of mouse at 10 mg/kg, ip for 10 days; assay type: functional; settings: route intraperitoneal
[27] = tested on: Trypanosoma brucei brucei; assay: Antitrypanosomal activity against Trypanosoma brucei brucei GVR35 infected in NMRI mouse CNS model assessed as cure from infection at 10 mg/kg, ip for 10 days; assay type: functional, organism-based; parameters: dose 10 mg/kg
[28] = tested on: Trypanosoma brucei rhodesiense; assay: Antitrypanosomal activity against wild-type Trypanosoma brucei rhodesiense STIB900 infected in NMRI mouse assessed as cure from infection at 20 mg/kg, ip for 4 days; assay type: functional, organism-based; parameters: dose 20 mg/kg
[29] = tested on: Trypanosoma brucei gambiense; assay: Antitrypanosomal activity against Trypanosoma brucei gambiense ITMAP141267 by Alamar blue assay; assay type: functional, organism-based
[30] = tested on: Trypanosoma brucei brucei; assay: Antitrypanosomal activity against Trypanosoma brucei brucei BS221 by Alamar blue assay; assay type: functional, organism-based
[31] = Ratio of IC50 for Trypanosoma brucei gambiense ITMAP141267 to IC50 for wild-type Trypanosoma brucei rhodesiense […]; assay type: functional
[32] = tested on: Trypanosoma brucei rhodesiense; assay: Antitrypanosomal activity against pentamidine-resistant Trypanosoma brucei rhodesiense STIB900 by Alamar blue assay; assay type: functional, organism-based
[33] = Ratio of IC50 for Trypanosoma brucei gambiense STIB930 to IC50 for wild-type Trypanosoma brucei rhodesiense […]; assay type: functional
[34] = tested on: Trypanosoma brucei gambiense; assay: Antitrypanosomal activity against Trypanosoma brucei gambiense STIB930 by Alamar blue assay; assay type: functional, organism-based
[35] = tested on: Trypanosoma brucei rhodesiense; assay: Antitrypanosomal activity against wild-type Trypanosoma brucei rhodesiense STIB900 infected in NMRI mouse assessed as cure from infection at 10 mg/kg, ip for 4 days; assay type: functional, organism-based; parameters: dose 10 mg/kg
[36] = tested on: Trypanosoma brucei rhodesiense; assay: Antitrypanosomal activity against wild-type Trypanosoma brucei rhodesiense STIB900 infected in NMRI mouse assessed as survival of mouse at 0.5 mg/kg, ip for 4 days; assay type: functional; settings: route intraperitoneal
[37] = tested on: Trypanosoma brucei brucei; assay: Antitrypanosomal activity against Trypanosoma brucei brucei GVR35 infected in NMRI mouse CNS model assessed as survival of mouse at 20 mg/kg, ip for 10 days; assay type: functional; settings: route intraperitoneal
[38] = tested on: Trypanosoma brucei rhodesiense; assay: Antitrypanosomal activity against wild-type Trypanosoma brucei rhodesiense STIB900 by Alamar blue assay; assay type: functional, organism-based

| SMILES | Ratio IC50 [15] | Ratio IC50 [16] | Ratio IC50 [18] | IC50 [19] [µg/mL] | Ratio IC50 [22] | IC50 [23] [µg/mL] | IC50 [24] [µg/mL] | Ratio IC50 [25] | IC50 [29] [µg/mL] | IC50 [30] [µg/mL] | Ratio IC50 [31] | IC50 [32] [µg/mL] | Ratio IC50 [33] | IC50 [34] [µg/mL] | other results |
| --- | --- | --- | --- | --- | --- | --- | --- | --- | --- | --- | --- | --- | --- | --- | --- |
| CO/N=C(\N)c1ccc(-c2ccc(-c3ccc(/C(N)=N/OC)cn3)o2)cc1 |  |  |  |  |  |  |  |  |  |  |  |  |  |  | Activity [1]: inactive; MSD [2]: 117.6 days; MSD [3]: >180 days; MSD [4]: >50.25 days; MSD [5]: >60 days; MSD [6]: 75.25 days; MSD [7]: 19.5 days; Activity [8]: Active; Activity [9]: Active; MSD [10]: >172 days; MSD [11]: >149.6 days; Activity [12]: inactive; MSD [13]: >180 days; MSD [14]: >176.6 days |
| N=C(N)c1ccc(-c2ccc(-c3ccc(C(=N)N)cn3)o2)nc1 | 6.1 | 10 | 17.8 | 0.0643 (≈ 0.21 µM) | 10.5 | 0.106 (≈ 0.347 µM) | 0.0395 (≈ 0.129 µM) | 14 | 0.0162 (≈ 0.0529 µM) | 0.006 (≈ 0.0196 µM) | 2.5 | 0.0679 (≈ 0.222 µM) | 5.4 | 0.0351 (≈ 0.115 µM) | MSD [17]: >60 days; MSD [20]: >132.3 days; Activity [21]: Active; MSD [26]: 95.6 days; Activity [27]: inactive; Activity [28]: Active; Activity [35]: Active; MSD [36]: >31 days; MSD [37]: >180 days |
| Nc1nc(N)nc(Nc2ccc([As]3SCC(CO)S3)cc2)n1 (configuration not stated) [MELARSOPROL] | 2.3 | 42 | 5.2 | 0.0567 | 20.9 | 0.0187 | 0.0031 | 14 | 0.0027 | 0.0036 | 2 | 0.0282 | 3.9 | 0.0053 | IC50 [38]: 0.0014 µg/mL |
